Measurements from ChEMBL document CHEMBL4393720, “Design, synthesis and biological evaluation of bromophenol-thiazolylhydrazone hybrids inhibiting the interaction of translation initiation factors eIF4E/eIF4G as multifunctional agents for cancer treatment” (Eur J Med Chem, 2019).
Activity calls are given as the source filed them. The calls are words filed in the database; no cut-off is given here.

How the values were obtained:
[1] = Acute toxicity in SPF Kunming mouse assessed as body weight at 1000 mg/kg, po administered as single dose measured at day 14 (reference value: 34.7g); type: organism-based; conditions: in vivo
A549 [2] = test: Induction of autophagy in human A549 cells assessed as change in ULK1 expression at 1 to 5 uM incubated for 48 hrs by Western blot analysis; type: functional, cell-based
A549 [3] = test: Induction of autophagy in human A549 cells infected with Ad-mCherry-GFP-LC3B assessed as LC3 aggregate formation at 2.5 uM incubated for 48 hrs by fluorescence microscopy; type: functional, cell-based
[4] = Subacute toxicity in SPF Kunming mouse assessed as kidney morphological changes at 2000 mg/kg, po administered once a day for 14 days by H and E staining based microscopic analysis; type: organism-based; conditions: in vivo, 336 h
A549 [5] = test: Inhibition of eIF4E/eIF4G interaction in human A549 cells incubated for 48 hrs by m7GTP pull down assay; type: cell-based
A549 [6] = test: Induction of apoptosis in human A549 cells at 2.5 uM incubated for 48 hrs in presence of pan caspase inhibitor, Z-VAD-FMK by annexin-V and propidium iodide staining based flow cytometric analysis; type: functional, cell-based
[7] = Acute toxicity in SPF Kunming mouse assessed as body weight at 2000 mg/kg, po administered as single dose measured at day 7 (reference value: 30.2g); type: organism-based; conditions: in vivo
[8] = Subacute toxicity in SPF Kunming mouse assessed as mortality at 2000 mg/kg, po administered once a day for 14 days; type: organism-based; conditions: in vivo, 336 h
A549 [9] = test: Antitumor activity against human A549 cells xenografted in athymic nude mouse assessed as necrosis of tumor cells and loosely packed cells at 25 to 50 mg/kg, ip administered once daily for 21 days by hematoxylin and eosin staining based microscopic analysis; type: functional, organism-based
[10] = Subacute toxicity in SPF Kunming mouse assessed as heart morphological changes at 2000 mg/kg, po administered once a day for 14 days by H and E staining based microscopic analysis; type: organism-based; conditions: in vivo, 336 h
A549 [11] = test: Induction of apoptosis in human A549 cells assessed as activation of PARP at 1 to 5 uM incubated for 48 hrs by Western blot analysis; type: functional, cell-based
A549 [12] = test: In vivo inhibition of PI3K/Akt/mTOR signalling pathway in human A549 cells xenografted in athymic nude mouse assessed as decrease in phosphorylation of mTOR at 25 to 50 mg/kg, ip administered once daily for 21 days by Western blot analysis; type: functional, organism-based
[13] = Acute toxicity in SPF Kunming mouse assessed as body weight at 500 mg/kg, po administered as single dose measured at day 7 (reference value: 30.2g); type: organism-based; conditions: in vivo
A549 [14] = test: In vivo inhibition of eIF4E in human A549 cells xenografted in athymic nude mouse assessed as decrease in phosphorylation of eIF4E at 25 to 50 mg/kg, ip administered once daily for 21 days by immunocytochemistry; type: functional, organism-based
A549 [15] = test: Induction of apoptosis in human A549 cells at 1 to 5 uM incubated for 48 hrs by annexin-V and propidium iodide staining based flow cytometric analysis; type: functional, cell-based
A549 [16] = test: In vivo inhibition of PI3K/Akt/mTOR signalling pathway in human A549 cells xenografted in athymic nude mouse assessed as decrease in phosphorylation of PI3K at 25 to 50 mg/kg, ip administered once daily for 21 days by Western blot analysis; type: functional, organism-based
A549 [17] = test: In vivo inhibition of PI3K/Akt/mTOR in human A549 cells xenografted in athymic nude mouse assessed as decrease in phosphorylation of 4EBP1 at 25 to 50 mg/kg, ip administered once daily for 21 days by immunocytochemistry; type: functional, organism-based
[18] = Acute toxicity in SPF Kunming mouse assessed as body weight at 500 mg/kg, po administered as single dose measured at day 14 (reference value: 34.7g); type: organism-based; conditions: in vivo
A549 [19] = test: Induction of autophagy in human A549 cells assessed as autophagic bodies formation at 2.5 uM incubated for 48 hrs by transmission electron microscopy; type: functional, cell-based
[20] = molecular target: Eukaryotic translation initiation factor 4E (Homo sapiens) (UniProt P06730); test: Inhibition of eIF4E phosphorylation in human A549 cells assessed as decrease in c-myc expression at 1 to 5 uM incubated for 48 hrs by western blot analysis; type: cell-based
[21] = Inhibition of PI3K/Akt/mTOR signalling pathway in human A549 cells assessed as reduction in PI3K phosphorylation at 1 to 5 uM incubated for 48 hrs by Western blot analysis; type: cell-based
A549 [22] = test: Antitumor activity against human A549 cells xenografted in athymic nude mouse assessed as decrease in tumor growth at 50 mg/kg, ip administered once daily for 21 days; type: functional; conditions: 504 h
[23] = Toxicity in athymic nude mouse xenografted with human A549 cells assessed as effect on heart morphological changes at 25 to 50 mg/kg, ip administered once daily for 21 days by H and E staining based assay; type: organism-based; conditions: in vivo, 504 h
[24] = Subacute toxicity in SPF Kunming mouse assessed as behavioural abnormalities at 2000 mg/kg, po administered once a day for 14 days; type: organism-based; conditions: in vivo, 336 h
[25] = Toxicity in athymic nude mouse xenografted with human A549 cells assessed as effect on lung morphological changes at 25 to 50 mg/kg, ip administered once daily for 21 days by H and E staining based assay; type: organism-based; conditions: in vivo, 504 h
[26] = Inhibition of PI3K/Akt/mTOR in human A549 cells assessed as increase in eIF4E/4EBP1 interaction incubated for 48 hrs by m7GTP pull down assay; type: cell-based
A549 [27] = test: Induction of apoptosis in human A549 cells assessed as activation of caspase 3 at 1 to 5 uM incubated for 48 hrs by Western blot analysis; type: functional, cell-based
U-87 MG = test: Antiproliferative activity against human U87MG cells assessed as inhibition of cell growth incubated for 48 hrs by MTT assay; type: functional, cell-based, U-87MG ATCC
HUVEC = test: Antiproliferative activity against human HUVEC cells assessed as inhibition of cell growth incubated for 48 hrs by MTT assay; type: cell-based
A549 [28] = test: In vivo inhibition of PI3K/Akt/mTOR signalling pathway in human A549 cells xenografted in athymic nude mouse assessed as decrease in phosphorylation of Akt at 25 to 50 mg/kg, ip administered once daily for 21 days by Western blot analysis; type: functional, organism-based
A549 [29] = test: Antitumor activity against human A549 cells xenografted in athymic nude mouse assessed as decrease in tumor growth at 25 mg/kg, ip administered once daily for 21 days; type: functional; conditions: 504 h
[30] = Volume of distribution in steady state in male Sprague-Dawley rat at 2 mg/kg, iv measured up to 24 hrs by LC/MS-MS analysis; type: ADME, organism-based; conditions: in vivo, read-out: Vdss
A549 [31] = test: Induction of autophagy in human A549 cells assessed as change in LC3 expression at 1 to 5 uM incubated for 48 hrs by Western blot analysis; type: functional, cell-based
[32] = Subacute toxicity in SPF Kunming mouse assessed as body weight at 2000 mg/kg, po administered once a day for 7 days (reference value: 28.4g); type: organism-based; conditions: in vivo, 168 h
A549 [33] = test: Inhibition of colony formation in human A549 cells incubated for 10 days by crystal violet staining based assay; type: functional, cell-based
[34] = Half life in female Sprague-Dawley rat at 2 mg/kg, iv measured up to 24 hrs by LC/MS-MS analysis; type: ADME, organism-based; conditions: in vivo

Sequence of Eukaryotic translation initiation factor 4E (Homo sapiens) (P06730 whole entry): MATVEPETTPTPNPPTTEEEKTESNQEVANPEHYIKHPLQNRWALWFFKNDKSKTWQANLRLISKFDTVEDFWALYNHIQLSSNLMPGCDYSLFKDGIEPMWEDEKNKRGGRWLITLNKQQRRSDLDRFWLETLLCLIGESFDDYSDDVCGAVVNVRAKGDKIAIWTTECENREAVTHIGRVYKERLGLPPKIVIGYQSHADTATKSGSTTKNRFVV

Fc1ccc(/C=N/Nc2nc(-c3ccc(C(F)(F)F)cc3)cs2)cc1F
Activity [1]: 34.9 g | Activity (A549 [2]): Active | Activity (A549 [3]): Active | Activity [4]: Non-Toxic | inhibition (A549 [5]): Active | Activity (A549 [6]): inactive | Activity [7]: 29.9 g | Activity [8]: Non-Toxic | Activity (A549 [9]): Active | Activity [10]: Non-Toxic | Activity (A549 [11]): Active | inhibition (A549 [12]): Active | Activity [13]: 29.1 g | inhibition (A549 [14]): Active | Activity (A549 [15]): Active | inhibition (A549 [16]): Active | inhibition (A549 [17]): Active | Activity [18]: 33.3 g | Activity (A549 [19]): Active | inhibition [20]: Active | inhibition [21]: Active | inhibition in vivo at 50 mg/kg (A549 [22]): 75% | Activity [23]: Non-Toxic | Activity [24]: Non-Toxic | Activity [25]: Non-Toxic | Activity [26]: Active | Activity (A549 [27]): Active | IC50 (U-87 MG): 29.9 µM | IC50 (HUVEC): 79.5 µM | inhibition (A549 [28]): Active | inhibition in vivo at 25 mg/kg (A549 [29]): 62% | Vd [30]: 0.12 L/kg | Activity (A549 [31]): Active | Activity [32]: 28 g | inhibition (A549 [33]): Dose-dependent effect | half-life [34]: 3.25 h
